Laboratory results reported in patent US20210346329A1, “TCA CYCLE INTERMEDIATES AND METHODS OF USE THEREOF” (IMBRIA PHARMACEUTICALS, INC., priority 2018, published 2021).
Several values for one entry are separate records, joined by “and”; a condition that tells them apart may be missing. Identical values can stand only once. Like-named read-outs stand apart in the source and are kept apart here.

Tests used:
[1] = for Dose-normalized AUClast: 100 mg/kg
Source text: Concentrations versus time data are plotted in FIG. 1 through FIG. 6.

[2] = for Bioavailability: Oral 50 mg/kg vs IV 10 mg/kg
Experimental: Blood samples were collected up to 8 hours post-dose, and plasma concentrations of the test articles were determined by LC-MS/MS. Pharmacokinetic parameters were determined using Phoenix WinNonlin (v8.0) software.
Plasma samples were extracted and analyzed using the methods described in the section on Sample Extraction. All data are expressed as ng/mL of the free base. Samples that were below the limit of quantification were not used in the calculation of averages.
Pharmacokinetic parameters were determined with Phoenix WinNonlin (v8.0) software using a non-compartmental model. The maximum plasma concentrations (C0) after IV dosing were estimated by extrapolation of the first two time points back to t=0. The maximum plasma concentration (Cmax) and the time to reach maximum plasma concentration (Tmax) after PO dosing were observed from the data. The area under the time concentration curve (AUC) was calculated using the linear trapezoidal rule with calculation to the last quantifiable data point, and with extrapolation to infinity if applicable. […] Mean residence time, MRT, was calculated by dividing the area under the moment curve (AUMC) by the AUC. Clearance (CL) was calculated from dose/AUC. Steady-state volume of distribution (Vss) was calculated from CL*MRT (mean residence time). Bioavailability was determined by dividing the individual dose-normalized PO AUClast values by the average dose-normalized IV AUClast value. Any samples below the limit of quantitation (1 ng/mL) were treated as zero for pharmacokinetic data analysis.
Standards were prepared in Sprague-Dawley rat plasma containing sodium heparin as the anticoagulant. Working solutions were prepared in 50:50 acetonitrile:water and then added to the rat plasma to make calibration standards to final concentrations of 2000, 1000, 500, 100, 50.0, 10.0, 5.00, 2.50, and 1.00 ng/mL. Standards were treated identically to the study samples.
Plasma samples were manually extracted using acetonitrile in a 96-well plate as outlined in Table 15.

[3] = IV 10 mg/kg, extrapolated to t = 0, mean
[4] = IV 10 mg/kg, individual Rat 598, 599, 600, 10 mg/kg
[5] = Oral 50 mg/kg, individual Rat 601, 602, 603, 50 mg/kg

O=[13C](O)[13CH2][13CH2][13C](=O)O [^13C4-succinate]
AUClast ([1]; SC 100 mg/kg, mean): 21630 ng·h/mL | AUC∞ ([1]; SC 100 mg/kg, mean): 20124 ng·h/mL | Cmax ([1]; SC 100 mg/kg, mean): 31000 ± 7451 ng/mL | Dose-normalized AUC∞ ([1]; SC 100 mg/kg, mean): 201 kg·ng·h/mL/mg | MRTlast ([1]; SC 100 mg/kg, mean): 37.7 min | t1/2 ([1]; SC 100 mg/kg, mean): 1.07 h | tmax ([1]; SC 100 mg/kg, mean): 15 min | Bioavailability ([1]; SC 100 mg/kg, mean, vs average IV dose-normalized AUClast): 100±24.6% | Dose-normalized AUClast ([1]; SC 100 mg/kg, mean): 216 ± 52.9 kg·ng·h/mL/mg | Dose-normalized AUClast ([1]; SC 100 mg/kg, mean, listed as 13C4-Succinate): 216 kg·ng·h/mL/mg | Change of exposure with increasing dose ([1]; SC 10, 50 and 100 mg/kg): nonlinear increase in exposure with increasing dose | Adverse reactions ([1]; subcutaneous dosing, 10, 50 and 100 mg/kg): No adverse reactions were observed | Plasma concentration ([2]; IV 10 mg/kg, 0.083 hr, individual Rat 598, 599, 600, 10 mg/kg): 8050 ng/mL and 6880 ng/mL and 8410 ng/mL | Plasma concentration ([2]; IV 10 mg/kg, 0.083 hr, mean): 7780 ng/mL | Plasma concentration ([2]; IV 10 mg/kg, 0.50 hr, individual Rat 598, 599, 600, 10 mg/kg): 91.0 ng/mL and 99.8 ng/mL and 144 ng/mL | Plasma concentration ([2]; IV 10 mg/kg, 0.50 hr, mean): 112 ng/mL | Plasma concentration ([2]; IV 10 mg/kg, 1.0 hr, individual Rat 598, 599, 600, 10 mg/kg): 27.0 ng/mL and 9.43 ng/mL and 29.5 ng/mL | Plasma concentration ([2]; IV 10 mg/kg, 1.0 hr, mean): 22.0 ng/mL | Plasma concentration ([2]; IV 10 mg/kg, 2.0 hr, individual Rat 598, 599, 600, 10 mg/kg): 10.3 ng/mL and 9.06 ng/mL and 19.9 ng/mL | Plasma concentration ([2]; IV 10 mg/kg, 2.0 hr, mean): 13.1 ng/mL | Plasma concentration ([2]; IV 10 mg/kg, 4.0 hr, individual Rat 598, 599, 600, 10 mg/kg): 4.79 ng/mL and 6.25 ng/mL and 6.15 ng/mL | Plasma concentration ([2]; IV 10 mg/kg, 4.0 hr, mean): 5.73 ng/mL | Plasma concentration ([2]; IV 10 mg/kg, 8.0 hr, individual Rat 598, 599, 600): BLOQ (BLOQ: below the limit of quantitation (1 ng/mL)) | tmax ([2]; IV 10 mg/kg, extrapolated to t = 0, individual Rat 598, 599, 600): 0 min | C0 ([2]; IV 10 mg/kg, extrapolated to t = 0, individual Rat 598, 599, 600, 10 mg/kg): 21947 ng/mL and 21392 ng/mL and 17434 ng/mL | C0 [2, 3]: 20257 ng/mL | tmax [2, 3]: 0 min | AUClast [2, 4]: 2215 ng·h/mL and 1958 ng·h/mL and 2291 ng·h/mL | AUC∞ [2, 4]: 2223 ng·h/mL and 2902 ng·h/mL and 2303 ng·h/mL | CL [2, 4]: 4.50 L/h/kg and 5.00 L/h/kg and 4.34 L/h/kg | Dose-normalized AUClast [2, 4]: 221 kg·ng·h/mL/mg and 196 kg·ng·h/mL/mg and 229 kg·ng·h/mL/mg | Dose-normalized AUC∞ [2, 4]: 222 kg·ng·h/mL/mg and 290 kg·ng·h/mL/mg and 230 kg·ng·h/mL/mg | MRTlast [2, 4]: 6.12 min and 5.69 min and 8.4 min | Vss [2, 4]: 0.561 L/kg and 1.65 L/kg and 0.735 L/kg | t1/2 [2, 4]: 1.26 h and 4.81 h and 1.30 h | AUClast ([2]; IV 10 mg/kg, mean): 2155 ng·h/mL | AUC∞ ([2]; IV 10 mg/kg, mean): 2176 ng·h/mL | CL ([2]; IV 10 mg/kg, mean): 4.61 ± 0.341 L/h/kg | Dose-normalized AUC∞ ([2]; IV 10 mg/kg, mean): 218 kg·ng·h/mL/mg | MRTlast ([2]; IV 10 mg/kg, mean): 6.78 min | Vss ([2]; IV 10 mg/kg, mean): 0.982 ± 0.584 L/kg | t1/2 ([2]; IV 10 mg/kg, mean): 2.46 ± 2.04 h | Dose-normalized AUClast ([2]; IV 10 mg/kg, mean, 10 mg/kg): 215 kg·ng·h/mL/mg | Dose-normalized AUClast ([2]; IV 10 mg/kg, mean, listed as 13C4-Succinate, 10 mg/kg): ^2Bioavailability determined by dividing the individual oral dose-normalized AUClast values by the average IV dose normalized AUClast value 215 hr*kg*ng/mL/mg from previous study. hr · kg · ng/mL/mg | Bioavailability ([2]; individual Rat 601, 602, 603): 0.726% and 0.191% and 1.64% | Bioavailability ([2]; mean): 0.854±0.735% | Plasma concentration ([2]; Oral 50 mg/kg, 0.50 hr, individual Rat 601, 602, 603, 50 mg/kg): 75.4 ng/mL and 27.8 ng/mL and 186 ng/mL | Plasma concentration ([2]; Oral 50 mg/kg, 0.50 hr, mean): 96.4 ng/mL | Plasma concentration ([2]; Oral 50 mg/kg, 1.0 hr, individual Rat 601, 602, 603, 50 mg/kg): 3.78 ng/mL and 3.00 ng/mL and 5.66 ng/mL | Plasma concentration ([2]; Oral 50 mg/kg, 1.0 hr, mean): 4.15 ng/mL | Plasma concentration ([2]; Oral 50 mg/kg, 2.0 hr, individual Rat 601, 602, 603, 50 mg/kg): 1.29 ng/mL and BLOQ (BLOQ: below the limit of quantitation (1 ng/mL)) and 2.25 ng/mL | Plasma concentration ([2]; Oral 50 mg/kg, 2.0 hr, mean): 1.77 ng/mL | Plasma concentration ([2]; Oral 50 mg/kg, 4.0 hr, individual Rat 601, 602, 603): BLOQ (BLOQ: below the limit of quantitation (1 ng/mL)) | Plasma concentration ([2]; Oral 50 mg/kg, 8.0 hr, individual Rat 601, 602, 603): BLOQ (BLOQ: below the limit of quantitation (1 ng/mL)) | tmax ([2]; Oral 50 mg/kg, individual Rat 601, 602, 603): 15 min | AUClast [2, 5]: 78.3 ng·h/mL and 20.6 ng·h/mL and 177 ng·h/mL | Cmax [2, 5]: 186 ng/mL and 37.5 ng/mL and 408 ng/mL | Dose-normalized AUClast [2, 5]: 1.57 kg·ng·h/mL/mg and 0.411 kg·ng·h/mL/mg and 3.54 kg·ng·h/mL/mg | MRTlast [2, 5]: 22.9 min and 24.2 min and 22.7 min | AUClast ([2]; Oral 50 mg/kg, mean): 92.0 ng·h/mL | Cmax ([2]; Oral 50 mg/kg, mean): 211 ± 186 ng/mL | MRTlast ([2]; Oral 50 mg/kg, mean): 23.3 min | tmax ([2]; Oral 50 mg/kg, mean): 15 min | Dose-normalized AUClast ([2]; Oral 50 mg/kg, mean, 50 mg/kg): 1.84 ± 1.58 kg·ng·h/mL/mg and 1.84 kg·ng·h/mL/mg | Time post dosing at which maximum plasma concentrations were observed ([2]; PO 50 mg/kg): 15 min | Adverse reactions ([2]; intravenous (10 mg/kg) and oral (50 mg/kg) dosing): No adverse reactions were observed
